Reference: ChEMBL document CHEMBL1149696, “Synthesis and antibacterial activity of C11, C12-cyclic urea analogues of ketolides” (2007)
In brackets after ≈: the same amount, converted by molar mass.

Columns and labels:
Type in all cases: functional
[1] = system: Streptococcus pyogenes; assay: Antibacterial activity against erythromycin susceptible Streptococcus pyogenes 203
[2] = system: Staphylococcus aureus; assay: Antibacterial activity against erythromycin susceptible Staphylococcus aureus 0052
[3] = system: Staphylococcus aureus; assay: Antibacterial activity against erm containing Staphylococcus aureus 1117
[4] = system: Haemophilus influenzae; assay: Antibacterial activity against Haemophilus influenzae 1100
[5] = system: Streptococcus pneumoniae; assay: Antibacterial activity against mef containing Streptococcus pneumoniae 1175
[6] = system: Streptococcus pneumoniae; assay: Antibacterial activity against erm containing Streptococcus pneumoniae 1095
[7] = system: Streptococcus pneumoniae; assay: Antibacterial activity against erythromycin susceptible Streptococcus pneumoniae 1016
[8] = system: Streptococcus pyogenes; assay: Antibacterial activity against erm containing Streptococcus pyogenes 1079
[9] = system: Staphylococcus aureus; assay: Antibacterial activity against erm containing Staphylococcus aureus 1095
[10] = system: Staphylococcus aureus; assay: Antibacterial activity against erythromycin susceptible Staphylococcus aureus 1146
[11] = system: Haemophilus influenzae; assay: Antibacterial activity against Haemophilus influenzae 1218

SMILES	MIC [1] [µg/mL]	MIC [2] [µg/mL]	MIC [3] [µg/mL]	MIC [4] [µg/mL]	MIC [5] [µg/mL]	MIC [6] [µg/mL]	MIC [7] [µg/mL]	MIC [8] [µg/mL]	MIC [9] [µg/mL]	MIC [10] [µg/mL]	MIC [11] [µg/mL]
CC/C=C/CN1C(=O)N(CCCCn2cnc(-c3cccnc3)c2)[C@@H]2[C@@H](C)C(=O)[C@H](C)C[C@](C)(OC)[C@H](O[C@@H]3O[C@H](C)C[C@H](N(C)C)[C@H]3O)[C@@H](C)C(=O)[C@](C)(F)C(=O)O[C@H](CC)[C@]21C	0.098 (≈ 0.109 µM)	0.098 (≈ 0.109 µM)	100 (≈ 111 µM)	0.5 (≈ 0.557 µM)	0.78 (≈ 0.869 µM)	0.1 (≈ 0.111 µM)	0.05 (≈ 0.0557 µM)	64 (≈ 71.3 µM)			
CC[C@H]1OC(=O)[C@@](C)(F)C(=O)[C@H](C)[C@@H](O[C@@H]2O[C@H](C)C[C@H](N(C)C)[C@H]2O)[C@@](C)(OC)C[C@@H](C)C(=O)[C@H](C)[C@H]2N(C/C=C/Cn3cnc(-c4cccnc4)c3)C(=O)N[C@]12C	0.063 (≈ 0.0762 µM)				0.25 (≈ 0.302 µM)	0.063 (≈ 0.0762 µM)	0.063 (≈ 0.0762 µM)	4 (≈ 4.84 µM)	64 (≈ 77.4 µM)	0.063 (≈ 0.0762 µM)	0.5 (≈ 0.605 µM)
CC[C@H]1OC(=O)[C@H](C)C(=O)[C@H](C)[C@@H](O[C@@H]2O[C@H](C)C[C@H](N(C)C)[C@H]2O)[C@](C)(OC)C[C@@H](C)C(=O)[C@H](C)[C@H]2N(CCCCn3cnc(-c4cccnc4)c3)C(=O)O[C@]12C [TELITHROMYCIN]	0.012 (≈ 0.0148 µM)	0.049 (≈ 0.0603 µM)	100 (≈ 123 µM)	0.5 (≈ 0.616 µM)	0.13 (≈ 0.16 µM)	0.05 (≈ 0.0616 µM)	0.013 (≈ 0.016 µM)	32 (≈ 39.4 µM)	64 (≈ 78.8 µM)	0.063 (≈ 0.0776 µM)	0.5 (≈ 0.616 µM)
CC[C@H]1OC(=O)[C@@](C)(F)C(=O)[C@H](C)[C@@H](O[C@@H]2O[C@H](C)C[C@H](N(C)C)[C@H]2O)[C@@](C)(OC)C[C@@H](C)C(=O)[C@H](C)[C@H]2N(C/C=C/Cn3cnc4cccnc43)C(=O)N[C@]12C	0.063 (≈ 0.0787 µM)				0.25 (≈ 0.312 µM)	0.063 (≈ 0.0787 µM)	0.063 (≈ 0.0787 µM)	2 (≈ 2.5 µM)	64 (≈ 79.9 µM)	0.063 (≈ 0.0787 µM)	0.5 (≈ 0.624 µM)
CC[C@H]1OC(=O)[C@@](C)(F)C(=O)[C@H](C)[C@@H](O[C@@H]2O[C@H](C)C[C@H](N(C)C)[C@H]2O)[C@@](C)(OC)C[C@@H](C)C(=O)[C@H](C)[C@H]2N(C/C=C/Cn3cnc(-c4cccnc4)c3)C(=O)N(C)[C@]12C	0.063 (≈ 0.0749 µM)				0.063 (≈ 0.0749 µM)	0.063 (≈ 0.0749 µM)	0.063 (≈ 0.0749 µM)	4 (≈ 4.76 µM)	64 (≈ 76.1 µM)	0.063 (≈ 0.0749 µM)	1 (≈ 1.19 µM)
CC[C@H]1OC(=O)[C@@](C)(F)C(=O)[C@H](C)[C@@H](O[C@@H]2O[C@H](C)C[C@H](N(C)C)[C@H]2O)[C@@](C)(OC)C[C@@H](C)C(=O)[C@H](C)[C@H]2N(CCCCn3cnc(-c4cccnc4)c3)C(=O)N[C@]12C	0.006 (≈ 0.00724 µM)	0.049 (≈ 0.0591 µM)	100 (≈ 121 µM)	2 (≈ 2.41 µM)	0.78 (≈ 0.941 µM)	0.012 (≈ 0.0145 µM)	0.006 (≈ 0.00724 µM)	4 (≈ 4.82 µM)			
CC[C@H]1OC(=O)[C@@](C)(F)C(=O)[C@H](C)[C@@H](O[C@@H]2O[C@H](C)C[C@H](N(C)C)[C@H]2O)[C@@](C)(OC)C[C@@H](C)C(=O)[C@H](C)[C@H]2N(CCCCn3cnc(-c4cccnc4)c3)C(=O)N(C)[C@]12C	0.024 (≈ 0.0285 µM)	0.024 (≈ 0.0285 µM)	100 (≈ 119 µM)	2 (≈ 2.37 µM)	0.2 (≈ 0.237 µM)	0.025 (≈ 0.0297 µM)	0.013 (≈ 0.0154 µM)	8 (≈ 9.49 µM)			
CC[C@H]1OC(=O)[C@@](C)(F)C(=O)[C@H](C)[C@@H](O[C@@H]2O[C@H](C)C[C@H](N(C)C)[C@H]2O)[C@@](C)(OC)C[C@@H](C)C(=O)[C@H](C)[C@H]2N(C/C=C/Cn3cnc4cccnc43)C(=O)N(C)[C@]12C	0.063 (≈ 0.0773 µM)				0.13 (≈ 0.16 µM)	0.063 (≈ 0.0773 µM)	0.063 (≈ 0.0773 µM)	2 (≈ 2.45 µM)	64 (≈ 78.5 µM)	0.063 (≈ 0.0773 µM)	0.25 (≈ 0.307 µM)

Further compounds by falling MIC [1], results first:

MIC [1] [µg/mL]	MIC [2] [µg/mL]	MIC [3] [µg/mL]	MIC [4] [µg/mL]	MIC [5] [µg/mL]	MIC [6] [µg/mL]	MIC [7] [µg/mL]	MIC [8] [µg/mL]	MIC [9] [µg/mL]	MIC [10] [µg/mL]	MIC [11] [µg/mL]	SMILES
0.063 (≈ 0.0805 µM)				1 (≈ 1.28 µM)	0.063 (≈ 0.0805 µM)	0.063 (≈ 0.0805 µM)	16 (≈ 20.4 µM)	64 (≈ 81.7 µM)	0.13 (≈ 0.166 µM)	1 (≈ 1.28 µM)	CC[C@H]1OC(=O)[C@H](C)C(=O)[C@H](C)[C@@H](O[C@@H]2O[C@H](C)C[C@H](N(C)C)[C@H]2O)[C@@](C)(OC)C[C@@H](C)C(=O)[C@H](C)[C@H]2N(C/C=C/Cn3cnc4cccnc43)C(=O)N[C@]12C
0.063 (≈ 0.0779 µM)				4 (≈ 4.94 µM)	0.063 (≈ 0.0779 µM)	0.063 (≈ 0.0779 µM)	32 (≈ 39.6 µM)	64 (≈ 79.1 µM)	0.25 (≈ 0.309 µM)	2 (≈ 2.47 µM)	CC[C@H]1OC(=O)[C@H](C)C(=O)[C@H](C)[C@@H](O[C@@H]2O[C@H](C)C[C@H](N(C)C)[C@H]2O)[C@@](C)(OC)C[C@@H](C)C(=O)[C@H](C)[C@H]2N(C/C=C/Cn3cnc(-c4cccnc4)c3)C(=O)N[C@]12C
0.049 (≈ 0.0555 µM)	0.098 (≈ 0.111 µM)	100 (≈ 113 µM)	0.25 (≈ 0.283 µM)	0.39 (≈ 0.442 µM)	0.1 (≈ 0.113 µM)	0.05 (≈ 0.0566 µM)	32 (≈ 36.2 µM)				C/C=C/CN1C(=O)N(CCCCn2cnc(-c3cccnc3)c2)[C@@H]2[C@@H](C)C(=O)[C@H](C)C[C@](C)(OC)[C@H](O[C@@H]3O[C@H](C)C[C@H](N(C)C)[C@H]3O)[C@@H](C)C(=O)[C@](C)(F)C(=O)O[C@H](CC)[C@]21C
0.024 (≈ 0.0296 µM)	0.039 (≈ 0.0481 µM)	100 (≈ 123 µM)	8 (≈ 9.86 µM)	6.3 (≈ 7.77 µM)	0.049 (≈ 0.0604 µM)	0.024 (≈ 0.0296 µM)	32 (≈ 39.5 µM)				CC[C@H]1OC(=O)[C@H](C)C(=O)[C@H](C)[C@@H](O[C@@H]2O[C@H](C)C[C@H](N(C)C)[C@H]2O)[C@@](C)(OC)C[C@@H](C)C(=O)[C@H](C)[C@H]2N(CCCCn3cnc(-c4cccnc4)c3)C(=O)N[C@]12C
0.024 (≈ 0.028 µM)	0.049 (≈ 0.0572 µM)	100 (≈ 117 µM)	0.25 (≈ 0.292 µM)	0.39 (≈ 0.455 µM)	0.025 (≈ 0.0292 µM)	0.013 (≈ 0.0152 µM)	32 (≈ 37.3 µM)				CC[C@H]1OC(=O)[C@@](C)(F)C(=O)[C@H](C)[C@@H](O[C@@H]2O[C@H](C)C[C@H](N(C)C)[C@H]2O)[C@@](C)(OC)C[C@@H](C)C(=O)[C@H](C)[C@H]2N(CCCCn3cnc(-c4cccnc4)c3)C(=O)N(CC)[C@]12C
0.012 (≈ 0.0138 µM)	0.049 (≈ 0.0564 µM)	100 (≈ 115 µM)	0.5 (≈ 0.575 µM)	0.39 (≈ 0.449 µM)	0.05 (≈ 0.0575 µM)	0.025 (≈ 0.0288 µM)	64 (≈ 73.6 µM)				C=CCN1C(=O)N(CCCCn2cnc(-c3cccnc3)c2)[C@@H]2[C@@H](C)C(=O)[C@H](C)C[C@](C)(OC)[C@H](O[C@@H]3O[C@H](C)C[C@H](N(C)C)[C@H]3O)[C@@H](C)C(=O)[C@](C)(F)C(=O)O[C@H](CC)[C@]21C
